The text below walks through data of ChEMBL document CHEMBL3045549, “Solvent-free, green and efficient synthesis of pyrano[4, 3-b]pyrans by grinding and their biological evaluation as antitumor and antioxidant agents” (Med Chem Res, 2013).

For assay [1], the system named is Radical scavenging activity. Nature of the assay: Antioxidant activity assessed as inhibition of DPPH radical after 30 mins by spectrophotometric analysis. The assay is classed as functional. (Loss of DPPH colour is used to gauge radical scavenging.)
In another assay the test system is MCF7. Nature of the assay: Cytotoxicity against human MCF7 cells after 96 hrs by MTT assay. The format is functional, cell-based. The conditions noted are these: MCF7, 96 h. A general note: Tetrazolium assays rely on reduction of a dye to a coloured formazan, in cell work by metabolically active cells.

As a reminder, the IC50 is the concentration that gives 50% inhibition. Consider `Cc1cc2c(c(=O)o1)C(c1cccs1)C(C#N)=C(N)O2` (configuration not stated), for which the IC50 in assay [1] is 739 µM; in the assay on MCF7, 15 µM.

Regarding `Cc1ccc(C2C(C#N)=C(N)Oc3cc(C)oc(=O)c32)cc1` (configuration not stated), the IC50 in assay [1] was found to be 634 µM; in the assay on MCF7, 54 µM.

As for `COc1ccc(C2C(C#N)=C(N)Oc3cc(C)oc(=O)c32)cc1` (configuration not stated), the IC50 in assay [1] is 520 µM; with MCF7, 57 µM.

Regarding `Cc1cc2c(c(=O)o1)C(c1ccc([N+](=O)[O-])cc1)C(C#N)=C(N)O2` (configuration not stated), the values for the IC50 (in assay [1]; with MCF7) were 816 µM and 42 µM, respectively.

For `Cc1cc2c(c(=O)o1)C(c1ccc(Cl)cc1)C(C#N)=C(N)O2` (configuration not stated), the IC50 in assay [1] was 487 µM; with MCF7, 32 µM.

Take `Cc1cc2c(c(=O)o1)C(c1ccc(Br)cc1)C(C#N)=C(N)O2` (configuration not stated): the values for the IC50 (in assay [1]; in the assay with MCF7) were 512 µM and 35 µM, respectively.

Consider `Cc1cc2c(c(=O)o1)C(c1ccco1)C(C#N)=C(N)O2` (configuration not stated), for which the IC50 in assay [1] was 228 µM; in the assay with MCF7, 27 µM.

In the case of `Cc1cc2c(c(=O)o1)C(c1ccc(C)s1)C(C#N)=C(N)O2` (configuration not stated), the IC50 was 943 µM in assay [1] and 22 µM with MCF7.

With `Cc1cc2c(c(=O)o1)C(c1ccc(Cl)s1)C(C#N)=C(N)O2` (configuration not stated), the IC50 stood at 616 µM in assay [1] and 12 µM with MCF7.

For the compound `Cc1cc2c(c(=O)o1)C(c1c[nH]c3ccccc13)C(C#N)=C(N)O2` (configuration not stated), the figures for the IC50 (in assay [1]; in the assay on MCF7) were 339 µM and 10 µM, respectively.

As to `Cc1cc2c(c(=O)o1)C(c1c[nH]c3ccc(C#N)cc13)C(C#N)=C(N)O2` (configuration not stated), the IC50 in assay [1] is 567 µM; in the assay on MCF7, 7 µM.

In the case of `Cc1cc2c(c(=O)o1)C(c1c[nH]c3ccc(Br)cc13)C(C#N)=C(N)O2` (configuration not stated), the IC50 in assay [1] amounted to 440 µM; in the assay with MCF7, 5 µM.

As to `Cc1cc2c(c(=O)o1)C(c1ccccc1)C(C#N)=C(N)O2` (configuration not stated), the IC50 in assay [1] was determined as 769 µM; in the assay with MCF7, 46 µM.

Consider `O=C1O[C@H]([C@@H](O)CO)C(O)=C1O` [ASCORBIC ACID], for which the IC50 in assay [1] was found to be 106 µM.
